Calls of active or inactive are those of the source. For most assays here, no stated cut-off is given here; in the data, actives have a measured Kd and inactives only a lower limit.
What was measured:
[1] = target: T1, AarF domain-containing protein kinase 1 (Homo sapiens, UniProt Q86TW2)
T1 sequence (Q86TW2 whole entry): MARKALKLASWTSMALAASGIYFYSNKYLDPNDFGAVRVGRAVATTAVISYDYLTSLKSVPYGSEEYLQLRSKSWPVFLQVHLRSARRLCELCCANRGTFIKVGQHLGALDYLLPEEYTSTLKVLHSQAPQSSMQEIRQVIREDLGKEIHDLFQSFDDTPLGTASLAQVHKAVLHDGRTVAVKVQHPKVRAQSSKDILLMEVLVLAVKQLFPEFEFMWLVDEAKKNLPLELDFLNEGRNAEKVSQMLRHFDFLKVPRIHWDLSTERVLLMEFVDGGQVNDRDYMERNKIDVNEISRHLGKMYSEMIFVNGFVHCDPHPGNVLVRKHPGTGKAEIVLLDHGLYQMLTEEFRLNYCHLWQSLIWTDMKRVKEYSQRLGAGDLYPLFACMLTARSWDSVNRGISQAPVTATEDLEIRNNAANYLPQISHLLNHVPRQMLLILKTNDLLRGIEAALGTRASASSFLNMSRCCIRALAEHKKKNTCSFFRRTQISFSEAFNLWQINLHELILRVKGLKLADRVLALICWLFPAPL

[2] = target: Cyclin-dependent kinase 13 (Homo sapiens, UniProt Q14004)
[3] = target: Tyrosine-protein kinase CSK (Homo sapiens, UniProt P41240)
[4] = target: T2, Cyclin-G-associated kinase (Homo sapiens, UniProt O14976)
T2 sequence (O14976 whole entry): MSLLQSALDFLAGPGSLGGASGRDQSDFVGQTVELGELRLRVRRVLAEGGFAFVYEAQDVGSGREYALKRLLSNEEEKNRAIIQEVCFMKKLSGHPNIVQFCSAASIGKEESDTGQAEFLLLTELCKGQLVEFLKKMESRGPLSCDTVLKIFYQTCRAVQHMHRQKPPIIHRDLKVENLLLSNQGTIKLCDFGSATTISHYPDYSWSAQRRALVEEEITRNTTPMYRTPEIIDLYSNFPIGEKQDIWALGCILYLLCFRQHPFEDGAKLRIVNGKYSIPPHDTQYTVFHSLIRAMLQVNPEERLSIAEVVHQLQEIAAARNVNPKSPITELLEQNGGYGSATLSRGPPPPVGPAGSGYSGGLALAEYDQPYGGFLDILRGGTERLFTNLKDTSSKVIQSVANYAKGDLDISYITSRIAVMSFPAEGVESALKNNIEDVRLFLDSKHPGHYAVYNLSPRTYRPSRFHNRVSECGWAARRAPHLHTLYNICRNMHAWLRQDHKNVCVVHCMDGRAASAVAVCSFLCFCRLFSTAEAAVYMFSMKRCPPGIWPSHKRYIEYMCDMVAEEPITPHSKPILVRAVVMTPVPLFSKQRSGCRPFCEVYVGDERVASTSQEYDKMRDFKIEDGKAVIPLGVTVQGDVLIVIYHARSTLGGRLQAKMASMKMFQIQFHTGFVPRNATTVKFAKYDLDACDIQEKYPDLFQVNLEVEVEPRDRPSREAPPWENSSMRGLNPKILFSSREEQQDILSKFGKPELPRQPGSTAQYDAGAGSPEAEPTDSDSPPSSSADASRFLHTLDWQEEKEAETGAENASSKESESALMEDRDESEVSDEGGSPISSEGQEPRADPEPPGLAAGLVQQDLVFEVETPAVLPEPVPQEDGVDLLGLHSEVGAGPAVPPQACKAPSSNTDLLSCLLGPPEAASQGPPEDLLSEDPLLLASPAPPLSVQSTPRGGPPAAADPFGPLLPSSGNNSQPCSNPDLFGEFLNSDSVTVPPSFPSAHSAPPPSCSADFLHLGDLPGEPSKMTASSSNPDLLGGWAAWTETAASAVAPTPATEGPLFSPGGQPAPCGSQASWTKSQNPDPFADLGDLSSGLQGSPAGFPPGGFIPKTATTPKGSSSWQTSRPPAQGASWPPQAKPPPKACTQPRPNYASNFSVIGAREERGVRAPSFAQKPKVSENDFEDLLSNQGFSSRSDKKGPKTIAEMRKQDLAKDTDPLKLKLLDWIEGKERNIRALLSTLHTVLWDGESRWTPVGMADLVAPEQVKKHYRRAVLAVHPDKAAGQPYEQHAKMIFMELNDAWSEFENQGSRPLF

[5] = target: T3, Bifunctional phosphoribosylaminoimidazole carboxylase/phosphoribosylaminoimidazole succinocarboxamide synthetase (Homo sapiens, UniProt P22234)
T3 sequence (P22234 whole entry): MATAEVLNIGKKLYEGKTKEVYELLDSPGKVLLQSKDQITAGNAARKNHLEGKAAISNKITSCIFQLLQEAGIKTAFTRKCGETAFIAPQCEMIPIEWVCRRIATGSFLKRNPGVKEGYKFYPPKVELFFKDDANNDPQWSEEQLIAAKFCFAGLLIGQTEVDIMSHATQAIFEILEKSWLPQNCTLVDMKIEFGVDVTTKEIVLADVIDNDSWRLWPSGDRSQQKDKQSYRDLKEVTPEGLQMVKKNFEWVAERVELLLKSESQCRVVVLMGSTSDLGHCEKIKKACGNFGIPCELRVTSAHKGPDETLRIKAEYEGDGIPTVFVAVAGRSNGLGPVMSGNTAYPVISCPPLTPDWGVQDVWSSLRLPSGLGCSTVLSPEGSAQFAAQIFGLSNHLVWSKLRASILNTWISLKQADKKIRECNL

[6] = target: Protein kinase C beta type (Homo sapiens, UniProt P05771)
Sequence of Protein kinase C beta type (P05771 whole entry): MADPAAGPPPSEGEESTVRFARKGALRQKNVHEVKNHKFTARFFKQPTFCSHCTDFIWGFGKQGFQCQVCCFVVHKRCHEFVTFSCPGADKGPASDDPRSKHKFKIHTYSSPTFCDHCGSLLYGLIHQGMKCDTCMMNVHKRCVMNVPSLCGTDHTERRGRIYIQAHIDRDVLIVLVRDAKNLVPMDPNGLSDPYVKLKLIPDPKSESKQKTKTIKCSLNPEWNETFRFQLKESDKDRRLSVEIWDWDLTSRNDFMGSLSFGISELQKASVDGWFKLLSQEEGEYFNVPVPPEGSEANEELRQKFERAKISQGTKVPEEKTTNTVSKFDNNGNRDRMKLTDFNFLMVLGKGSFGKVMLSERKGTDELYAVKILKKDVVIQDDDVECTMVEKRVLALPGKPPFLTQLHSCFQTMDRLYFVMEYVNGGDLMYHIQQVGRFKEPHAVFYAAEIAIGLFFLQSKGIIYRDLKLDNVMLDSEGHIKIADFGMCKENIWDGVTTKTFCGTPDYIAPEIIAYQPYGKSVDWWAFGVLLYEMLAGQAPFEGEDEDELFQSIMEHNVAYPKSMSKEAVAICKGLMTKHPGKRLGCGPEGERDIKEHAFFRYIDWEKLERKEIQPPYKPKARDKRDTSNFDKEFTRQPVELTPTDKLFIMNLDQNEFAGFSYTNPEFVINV

Sequence of Tyrosine-protein kinase CSK (P41240 whole entry): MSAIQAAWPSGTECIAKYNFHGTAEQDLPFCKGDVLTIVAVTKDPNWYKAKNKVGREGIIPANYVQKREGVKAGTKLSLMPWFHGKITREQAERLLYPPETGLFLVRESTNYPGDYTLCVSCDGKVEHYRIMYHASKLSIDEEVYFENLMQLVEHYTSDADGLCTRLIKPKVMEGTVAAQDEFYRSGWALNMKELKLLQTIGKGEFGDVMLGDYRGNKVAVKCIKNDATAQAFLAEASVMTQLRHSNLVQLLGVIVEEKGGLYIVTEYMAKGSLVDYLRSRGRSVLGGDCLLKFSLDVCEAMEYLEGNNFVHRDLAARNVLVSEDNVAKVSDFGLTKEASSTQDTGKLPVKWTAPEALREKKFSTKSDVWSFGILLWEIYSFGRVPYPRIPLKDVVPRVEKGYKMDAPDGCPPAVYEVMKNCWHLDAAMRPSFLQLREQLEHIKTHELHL
Sequence of Cyclin-dependent kinase 13 (Q14004 whole entry): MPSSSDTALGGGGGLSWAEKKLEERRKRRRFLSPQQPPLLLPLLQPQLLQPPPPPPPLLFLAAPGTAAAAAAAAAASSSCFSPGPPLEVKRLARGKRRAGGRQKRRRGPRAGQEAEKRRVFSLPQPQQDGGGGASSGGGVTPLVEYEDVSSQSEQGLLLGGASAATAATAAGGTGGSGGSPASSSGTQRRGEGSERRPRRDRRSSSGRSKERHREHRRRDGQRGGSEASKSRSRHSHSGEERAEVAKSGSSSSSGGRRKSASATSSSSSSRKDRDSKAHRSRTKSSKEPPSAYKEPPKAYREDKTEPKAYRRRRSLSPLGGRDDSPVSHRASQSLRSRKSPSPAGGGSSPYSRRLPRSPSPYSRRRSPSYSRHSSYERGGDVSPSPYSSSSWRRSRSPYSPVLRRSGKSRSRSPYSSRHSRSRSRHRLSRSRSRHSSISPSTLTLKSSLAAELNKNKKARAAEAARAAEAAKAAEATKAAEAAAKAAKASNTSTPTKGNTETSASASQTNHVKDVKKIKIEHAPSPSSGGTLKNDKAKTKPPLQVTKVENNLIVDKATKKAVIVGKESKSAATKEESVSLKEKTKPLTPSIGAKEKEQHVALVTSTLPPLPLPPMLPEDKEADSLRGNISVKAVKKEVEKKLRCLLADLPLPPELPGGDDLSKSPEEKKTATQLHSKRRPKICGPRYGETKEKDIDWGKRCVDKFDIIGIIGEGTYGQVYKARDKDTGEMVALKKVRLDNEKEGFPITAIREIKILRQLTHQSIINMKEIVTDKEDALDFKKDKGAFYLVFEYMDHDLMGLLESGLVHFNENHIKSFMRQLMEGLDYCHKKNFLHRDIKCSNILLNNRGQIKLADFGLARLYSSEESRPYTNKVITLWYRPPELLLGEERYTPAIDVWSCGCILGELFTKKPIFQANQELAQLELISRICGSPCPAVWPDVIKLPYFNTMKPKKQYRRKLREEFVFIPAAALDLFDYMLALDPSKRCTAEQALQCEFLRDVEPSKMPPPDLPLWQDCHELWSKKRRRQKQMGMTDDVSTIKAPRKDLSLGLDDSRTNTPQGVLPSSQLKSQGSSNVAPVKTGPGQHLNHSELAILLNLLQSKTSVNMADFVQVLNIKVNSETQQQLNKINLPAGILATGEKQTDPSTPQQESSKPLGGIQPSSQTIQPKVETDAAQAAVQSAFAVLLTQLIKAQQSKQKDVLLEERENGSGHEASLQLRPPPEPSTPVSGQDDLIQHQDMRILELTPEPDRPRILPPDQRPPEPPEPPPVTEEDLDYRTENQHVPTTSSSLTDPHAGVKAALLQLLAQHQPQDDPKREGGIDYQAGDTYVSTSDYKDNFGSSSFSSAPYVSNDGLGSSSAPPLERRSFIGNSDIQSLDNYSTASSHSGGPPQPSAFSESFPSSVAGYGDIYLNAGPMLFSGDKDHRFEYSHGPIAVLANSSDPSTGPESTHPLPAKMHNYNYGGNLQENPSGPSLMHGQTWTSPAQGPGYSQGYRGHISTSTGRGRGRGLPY

With `O=C(c1ccc(F)c(F)c1Nc1ccc(I)cc1F)N1CC(O)([C@@H]2CCCCN2)C1` [COBIMETINIB] the Kd [1] was > 30 µM (inactive), the Kd [2] was > 30 µM (inactive) and the Kd [3] was > 30 µM (inactive). For the same compound, the Kd [4] was > 30 µM (inactive), the Kd [5] was > 30 µM (inactive) and the Kd [6] was > 30 µM (inactive).
In the case of `CCc1cnn2c(NCc3ccc[n+]([O-])c3)cc(N3CCCC[C@H]3CCO)nc12` [DINACICLIB], the Kd [1] is reported as > 30 µM (inactive), the Kd [2] is reported as 0.021 µM (active) and the Kd [3] is reported as > 30 µM (inactive). For the same compound, the Kd [4] was > 30 µM (inactive), the Kd [5] was > 30 µM (inactive) and the Kd [6] was > 30 µM (inactive).
In the case of `COC(=O)N[C@@H](C)CNc1nccc(-c2cn(C(C)C)nc2-c2cc(Cl)cc(NS(C)(=O)=O)c2F)n1` [ENCORAFENIB], the Kd [1] is reported as > 30 µM (inactive), the Kd [2] is reported as > 30 µM (inactive) and the Kd [3] is reported as > 30 µM (inactive). For the same compound, the Kd [4] was > 30 µM (inactive), the Kd [5] was > 30 µM (inactive) and the Kd [6] was > 30 µM (inactive).
In the case of `Cc1cc(Nc2cc(N3CCN(C)CC3)nc(/C=C/c3ccccc3)n2)n[nH]1` [ENMD-2076], the Kd [1] is reported as > 30 µM (inactive), the Kd [2] is reported as > 30 µM (inactive) and the Kd [3] is reported as > 30 µM (inactive). The Kd [4] was > 30 µM (inactive), the Kd [5] was > 30 µM (inactive) and the Kd [6] was > 30 µM (inactive).
In the case of `CO[C@H]1C[C@@H]2CC[C@@H](C)[C@@](O)(O2)C(=O)C(=O)N2CCCC[C@H]2C(=O)O[C@H]([C@H](C)C[C@@H]2CC[C@@H](OCCO)[C@H](OC)C2)CC(=O)[C@H](C)/C=C(\C)[C@@H](O)[C@@H](OC)C(=O)[C@H](C)C[C@H](C)/C=C/C=C/C=C/1C` [EVEROLIMUS], the Kd [1] is reported as > 30 µM (inactive), the Kd [2] is reported as > 30 µM (inactive) and the Kd [3] is reported as > 30 µM (inactive). The Kd [4] was > 30 µM (inactive), the Kd [5] was > 30 µM (inactive) and the Kd [6] was > 30 µM (inactive).
With `COCCNCc1ccc(-c2cc3nccc(Oc4ccc(NC(=S)NC(=O)Cc5ccc(F)cc5)cc4F)c3s2)nc1` [GLESATINIB] the Kd [1] was > 30 µM (inactive), the Kd [2] was > 30 µM (inactive) and the Kd [3] was > 30 µM (inactive). The Kd [4] was > 30 µM (inactive), the Kd [5] was > 30 µM (inactive) and the Kd [6] was > 30 µM (inactive).
In the case of `O=C1NC(=O)/C(=C/c2ccc3nccc(-c4ccncc4)c3c2)S1` [GSK-1059615], the Kd [1] is reported as > 30 µM (inactive), the Kd [2] is reported as > 30 µM (inactive) and the Kd [3] is reported as > 30 µM (inactive). The Kd [4] was 7.44 µM (active), the Kd [5] was > 30 µM (inactive) and the Kd [6] was > 30 µM (inactive).
With `CC[C@H](Nc1ncnc2[nH]cnc12)c1nc2cccc(F)c2c(=O)n1-c1ccccc1` [IDELALISIB] the Kd [1] was > 30 µM (inactive), the Kd [2] was > 30 µM (inactive) and the Kd [3] was > 30 µM (inactive). For the same compound, the Kd [4] was > 30 µM (inactive), the Kd [5] was > 30 µM (inactive) and the Kd [6] was > 30 µM (inactive).
With `Cn1cc(-c2ccc3nnc(C(F)(F)c4ccc5ncccc5c4)n3n2)cn1` [JNJ-38877605] the Kd [1] was > 30 µM (inactive), the Kd [2] was > 30 µM (inactive) and the Kd [3] was > 30 µM (inactive). For the same compound, the Kd [4] was > 30 µM (inactive), the Kd [5] was > 30 µM (inactive) and the Kd [6] was > 30 µM (inactive).
With `Cc1c(F)cc(C(=O)NC2CC2)cc1-c1ccc(C(=O)NCC(C)(C)C)cn1` [LOSMAPIMOD] the Kd [1] was > 30 µM (inactive), the Kd [2] was > 30 µM (inactive) and the Kd [3] was > 30 µM (inactive). For the same compound, the Kd [4] was > 30 µM (inactive), the Kd [5] was > 30 µM (inactive) and the Kd [6] was > 30 µM (inactive).
In the case of `Cn1cc(-c2ccc(F)c(C(F)(F)F)c2)nc1C1CCN(c2ncnc3[nH]ncc23)CC1` [LY-2584702], the Kd [1] is reported as > 30 µM (inactive), the Kd [2] is reported as > 30 µM (inactive) and the Kd [3] is reported as > 30 µM (inactive). For the same compound, the Kd [4] was > 30 µM (inactive), the Kd [5] was > 30 µM (inactive) and the Kd [6] was > 30 µM (inactive).
With `O=C(O)[C@]1(Cc2cccc(Nc3nccs3)n2)CC[C@@H](Oc2cccc(Cl)c2F)CC1` [MK-5108] the Kd [1] was > 30 µM (inactive), the Kd [2] was > 30 µM (inactive) and the Kd [3] was > 30 µM (inactive). The Kd [4] was > 30 µM (inactive), the Kd [5] was > 30 µM (inactive) and the Kd [6] was > 30 µM (inactive).
With `C1=C/COCc2cc(ccc2OCCN2CCCC2)Nc2nccc(n2)-c2cccc(c2)COC/1` [PACRITINIB] the Kd [1] was 0.033 µM (active), the Kd [2] was > 30 µM (inactive) and the Kd [3] was > 30 µM (inactive). The Kd [4] was 0.674 µM (active), the Kd [5] was > 30 µM (inactive) and the Kd [6] was 7.24 µM (active).
